Laboratory results from patent publication US20260365670A1, “EGFR INHIBITORS AND USES THEREOF” (DIZAL (JIANGSU) PHARMACEUTICAL CO., LTD., priority 2022, published 2026).
Like-named read-outs stand apart in the source and are kept apart here.

Legend:
EGFR (d746-750 C797S) = target: T1, EGFR (d746-750 C797S) (Homo sapiens, UniProt P00533, C797S/DEL746-750); test: Inhibition of EGFR (d746-750 C797S) biochemical enzymatic activity (HTRF); settings: EGFR Del19-C797S, 1 mM ATP, 1 h, room temperature, read-out: IC50 (nM) @Del19-C797S
T1 construct: purchased signalchem
T1 sequence (P00533 with tags, fused parts or gaps DEL746-750/C797S limits assumed): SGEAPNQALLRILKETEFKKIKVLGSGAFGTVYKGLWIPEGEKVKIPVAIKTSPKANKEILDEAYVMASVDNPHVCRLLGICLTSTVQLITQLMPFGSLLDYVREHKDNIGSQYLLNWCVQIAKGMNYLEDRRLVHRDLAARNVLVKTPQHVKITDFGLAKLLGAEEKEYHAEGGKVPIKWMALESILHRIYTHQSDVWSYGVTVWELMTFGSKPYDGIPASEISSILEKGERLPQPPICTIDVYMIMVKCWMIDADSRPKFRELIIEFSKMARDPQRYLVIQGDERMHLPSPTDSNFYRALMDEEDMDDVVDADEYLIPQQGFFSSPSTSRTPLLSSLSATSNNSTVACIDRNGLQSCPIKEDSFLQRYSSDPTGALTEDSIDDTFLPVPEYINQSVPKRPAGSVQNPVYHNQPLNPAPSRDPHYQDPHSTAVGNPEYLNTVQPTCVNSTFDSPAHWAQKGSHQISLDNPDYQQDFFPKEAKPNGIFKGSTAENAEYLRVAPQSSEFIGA
Method in brief: (§1)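 Recombinant kinases phosphorylated 1 μM biotinylated TK substrate with 1 mM ATP in buffer with 5 mM MgCl2, 1 mM MnCl2, 0.01% CHAPS, 1 mM DTT, 0.5% DMSO. Reaction ran 1 h at room temperature, stopped with EDTA-containing detection mix. HTRF 665/615 nm ratio gave IC50 via four-parameter logistic fit.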

A-431 = test: Cell proliferation GI50, A-431 cells (Table 6); format: cell-based; settings: Homo sapiens, A-431, A-431 cells
EGFR L858R = target: T2, EGFR L858R (Homo sapiens, UniProt P00533, L858R); test: Inhibition of EGFR L858R biochemical enzymatic activity (HTRF); settings: 1 mM ATP, 1 h, room temperature, read-out: IC50 (nM) @L858R
T2 construct: purchased Carna Bio
Method in brief: as §1

EGFR L858R/T790M = target: T3, EGFR L858R/T790M (Homo sapiens, UniProt P00533, L858R/T790M); test: Inhibition of EGFR L858R/T790M biochemical enzymatic activity (HTRF); settings: EGFR L858R-T790M, 1 mM ATP, 1 h, room temperature, read-out: IC50 (nM) @L858R-T790M
T3 construct: purchased Carna Bio
T3 sequence (P00533 25-1210 T790M/L858R): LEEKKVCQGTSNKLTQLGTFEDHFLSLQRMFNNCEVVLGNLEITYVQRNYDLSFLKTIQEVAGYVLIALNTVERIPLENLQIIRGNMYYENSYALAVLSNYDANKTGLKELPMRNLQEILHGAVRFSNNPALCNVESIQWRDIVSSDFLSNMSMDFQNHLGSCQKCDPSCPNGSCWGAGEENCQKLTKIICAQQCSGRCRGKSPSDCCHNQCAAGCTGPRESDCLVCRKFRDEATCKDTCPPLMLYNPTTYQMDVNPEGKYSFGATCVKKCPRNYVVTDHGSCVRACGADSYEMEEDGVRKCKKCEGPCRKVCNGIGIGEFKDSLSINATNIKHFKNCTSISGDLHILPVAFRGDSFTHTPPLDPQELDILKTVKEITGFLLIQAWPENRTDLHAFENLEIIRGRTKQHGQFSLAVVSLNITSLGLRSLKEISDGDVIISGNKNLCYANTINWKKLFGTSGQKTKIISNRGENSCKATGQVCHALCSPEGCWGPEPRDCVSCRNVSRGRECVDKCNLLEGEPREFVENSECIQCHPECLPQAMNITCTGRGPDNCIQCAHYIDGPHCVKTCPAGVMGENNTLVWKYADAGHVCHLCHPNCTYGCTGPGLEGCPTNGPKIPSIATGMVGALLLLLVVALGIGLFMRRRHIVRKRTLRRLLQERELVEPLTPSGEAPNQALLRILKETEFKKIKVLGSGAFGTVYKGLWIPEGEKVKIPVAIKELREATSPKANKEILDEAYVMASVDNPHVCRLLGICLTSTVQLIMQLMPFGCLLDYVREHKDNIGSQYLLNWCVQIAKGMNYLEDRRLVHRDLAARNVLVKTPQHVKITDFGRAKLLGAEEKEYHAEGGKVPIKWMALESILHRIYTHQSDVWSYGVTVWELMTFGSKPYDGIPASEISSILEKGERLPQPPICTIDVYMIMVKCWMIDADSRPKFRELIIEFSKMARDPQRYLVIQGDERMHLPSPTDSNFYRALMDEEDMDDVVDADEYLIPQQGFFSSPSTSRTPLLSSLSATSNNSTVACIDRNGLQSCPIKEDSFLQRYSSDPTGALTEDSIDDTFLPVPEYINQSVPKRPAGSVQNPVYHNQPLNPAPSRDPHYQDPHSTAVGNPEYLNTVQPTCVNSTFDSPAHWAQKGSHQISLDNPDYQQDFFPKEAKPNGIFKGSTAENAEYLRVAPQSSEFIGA
Method in brief: as §1

[1] = test system: Ba/F3 cells expressing EGFR mutations; test: Cell proliferation assay, Ba/F3 cells expressing EGFR mutations (CellTiter-Glo, 72 hours); format: cell-based; settings: Mus musculus, BaF3, 72 h, CellTiter-Glo
Method in brief: (§2)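 Seed Ba/F3 at 5000 cells/well and PC-9 at 500 cells/well (10% FBS RPMI1640); incubate overnight; add compound dilution series; read a G0 plate; incubate; read G3; GI50 from best-fit curve.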

EGFR Exon19Del = target: T4, EGFR Exon19Del (Homo sapiens, UniProt P00533, DEL746-750); test: Inhibition of EGFR Exon19Del biochemical enzymatic activity (HTRF); settings: EGFR Del19, 1 mM ATP, 1 h, room temperature, read-out: IC50 @Del19
T4 construct: purchased Carna Bio
T4 sequence (P00533 with tags, fused parts or gaps DEL746-750 limits assumed): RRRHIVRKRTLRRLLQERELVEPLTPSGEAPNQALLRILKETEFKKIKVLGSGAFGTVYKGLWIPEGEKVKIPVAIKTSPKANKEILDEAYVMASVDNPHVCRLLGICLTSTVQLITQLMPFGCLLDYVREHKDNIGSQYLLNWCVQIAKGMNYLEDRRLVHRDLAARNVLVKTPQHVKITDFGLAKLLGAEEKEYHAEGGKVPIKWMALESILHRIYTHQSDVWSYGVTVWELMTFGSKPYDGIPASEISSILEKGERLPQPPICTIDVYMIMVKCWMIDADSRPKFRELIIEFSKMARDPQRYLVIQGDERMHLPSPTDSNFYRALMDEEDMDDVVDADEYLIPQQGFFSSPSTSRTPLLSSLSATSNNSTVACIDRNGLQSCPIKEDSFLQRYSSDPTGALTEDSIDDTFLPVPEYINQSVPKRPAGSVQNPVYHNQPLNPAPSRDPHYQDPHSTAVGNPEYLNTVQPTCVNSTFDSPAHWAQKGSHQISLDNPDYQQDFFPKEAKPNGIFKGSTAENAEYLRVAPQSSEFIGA
Method in brief: as §1

PC-9 = test: Cell proliferation assay, PC-9 cells (CellTiter-Glo, 72 hours); format: cell-based; settings: Homo sapiens, PC-9, 72 h, PC9 cells, CellTiter-Glo, read-out: PC9 GI50
Method in brief: as §2

[2] = target: T5, EGFR[T790M/C797S/d746-750] (Homo sapiens, UniProt P00533, C797S/DEL746-750/T790M); test: Inhibition of EGFR[T790M/C797S/d746-750] biochemical enzymatic activity (HTRF); settings: EGFR T790M-C797S-Del19, 1 mM ATP, 1 h, room temperature, read-out: IC50 (nM) @T790M - C797S - Del19
T5 construct: purchased Carna Bio
Method in brief: as §1

EGFR Exon19Del/T790M = target: T6, EGFR Exon19Del/T790M (Homo sapiens, UniProt P00533, DEL746-750/T790M); test: Inhibition of EGFR Exon19Del/T790M biochemical enzymatic activity (HTRF); settings: EGFR Del19-T790M, 1 mM ATP, 1 h, room temperature, read-out: IC50 (nM) @Del19-T790M
T6 construct: purchased Carna Bio
Method in brief: as §1

EGFR[T790M/C797S/L858R] = target: T7, EGFR[T790M/C797S/L858R] (Homo sapiens, UniProt P00533, C797S/L858R/T790M); test: Inhibition of EGFR[T790M/C797S/L858R] biochemical enzymatic activity (HTRF); settings: EGFR T790M-C797S-L858R, 1 mM ATP, 1 h, room temperature, read-out: IC50 (nM) @T790M- C797S - L858R
T7 construct: purchased Carna Bio
Method in brief: as §1

EGFR wild type = target: T8, EGFR wild type (Homo sapiens, UniProt P00533); test: Inhibition of EGFR wild type biochemical enzymatic activity (HTRF); settings: EGFR WT, 1 mM ATP, 1 h, room temperature, read-out: IC50 (nM) @WT
T8 construct: purchased Carna Bio
T8 sequence (P00533 25-1210): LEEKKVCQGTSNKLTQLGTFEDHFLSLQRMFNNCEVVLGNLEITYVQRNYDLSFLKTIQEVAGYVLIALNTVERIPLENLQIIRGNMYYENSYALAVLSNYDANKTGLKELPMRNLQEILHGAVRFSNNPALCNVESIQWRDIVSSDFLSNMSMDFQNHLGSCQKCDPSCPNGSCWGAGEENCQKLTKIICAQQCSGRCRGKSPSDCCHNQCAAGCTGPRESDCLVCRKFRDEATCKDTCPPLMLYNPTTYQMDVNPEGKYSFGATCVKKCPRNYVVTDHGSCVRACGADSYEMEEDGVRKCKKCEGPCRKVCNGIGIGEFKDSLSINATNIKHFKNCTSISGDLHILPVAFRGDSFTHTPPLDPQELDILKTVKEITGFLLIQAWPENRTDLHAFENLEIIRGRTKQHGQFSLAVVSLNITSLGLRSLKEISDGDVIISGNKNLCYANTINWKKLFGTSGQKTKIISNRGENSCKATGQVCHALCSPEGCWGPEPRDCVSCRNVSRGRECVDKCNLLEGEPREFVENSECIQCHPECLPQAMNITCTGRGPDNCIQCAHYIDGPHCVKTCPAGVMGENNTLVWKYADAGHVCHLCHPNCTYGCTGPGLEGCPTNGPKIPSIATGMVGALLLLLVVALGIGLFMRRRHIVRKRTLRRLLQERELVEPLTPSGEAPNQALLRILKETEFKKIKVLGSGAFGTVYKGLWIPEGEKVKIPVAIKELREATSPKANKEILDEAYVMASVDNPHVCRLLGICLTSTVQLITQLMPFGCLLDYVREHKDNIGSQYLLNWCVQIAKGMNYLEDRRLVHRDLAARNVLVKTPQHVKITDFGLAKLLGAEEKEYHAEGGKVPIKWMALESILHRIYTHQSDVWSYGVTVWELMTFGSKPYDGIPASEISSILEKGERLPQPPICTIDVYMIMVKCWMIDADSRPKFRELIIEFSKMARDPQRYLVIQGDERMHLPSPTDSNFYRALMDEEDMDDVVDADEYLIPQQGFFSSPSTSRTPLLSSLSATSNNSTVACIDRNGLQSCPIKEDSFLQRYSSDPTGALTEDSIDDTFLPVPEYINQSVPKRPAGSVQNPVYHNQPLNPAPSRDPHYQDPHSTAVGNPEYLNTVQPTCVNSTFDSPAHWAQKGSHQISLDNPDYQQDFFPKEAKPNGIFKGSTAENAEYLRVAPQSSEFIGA
Method in brief: as §1

EGFR (C797S L858R) = target: T9, EGFR (C797S L858R) (Homo sapiens, UniProt P00533, C797S/L858R); test: Inhibition of EGFR (C797S L858R) biochemical enzymatic activity (HTRF); settings: EGFR L858-C797S, 1 mM ATP, 1 h, room temperature, read-out: IC50 (nM) @L858-C797S
T9 construct: purchased signalchem
T9 sequence (P00533 25-1210 C797S/L858R): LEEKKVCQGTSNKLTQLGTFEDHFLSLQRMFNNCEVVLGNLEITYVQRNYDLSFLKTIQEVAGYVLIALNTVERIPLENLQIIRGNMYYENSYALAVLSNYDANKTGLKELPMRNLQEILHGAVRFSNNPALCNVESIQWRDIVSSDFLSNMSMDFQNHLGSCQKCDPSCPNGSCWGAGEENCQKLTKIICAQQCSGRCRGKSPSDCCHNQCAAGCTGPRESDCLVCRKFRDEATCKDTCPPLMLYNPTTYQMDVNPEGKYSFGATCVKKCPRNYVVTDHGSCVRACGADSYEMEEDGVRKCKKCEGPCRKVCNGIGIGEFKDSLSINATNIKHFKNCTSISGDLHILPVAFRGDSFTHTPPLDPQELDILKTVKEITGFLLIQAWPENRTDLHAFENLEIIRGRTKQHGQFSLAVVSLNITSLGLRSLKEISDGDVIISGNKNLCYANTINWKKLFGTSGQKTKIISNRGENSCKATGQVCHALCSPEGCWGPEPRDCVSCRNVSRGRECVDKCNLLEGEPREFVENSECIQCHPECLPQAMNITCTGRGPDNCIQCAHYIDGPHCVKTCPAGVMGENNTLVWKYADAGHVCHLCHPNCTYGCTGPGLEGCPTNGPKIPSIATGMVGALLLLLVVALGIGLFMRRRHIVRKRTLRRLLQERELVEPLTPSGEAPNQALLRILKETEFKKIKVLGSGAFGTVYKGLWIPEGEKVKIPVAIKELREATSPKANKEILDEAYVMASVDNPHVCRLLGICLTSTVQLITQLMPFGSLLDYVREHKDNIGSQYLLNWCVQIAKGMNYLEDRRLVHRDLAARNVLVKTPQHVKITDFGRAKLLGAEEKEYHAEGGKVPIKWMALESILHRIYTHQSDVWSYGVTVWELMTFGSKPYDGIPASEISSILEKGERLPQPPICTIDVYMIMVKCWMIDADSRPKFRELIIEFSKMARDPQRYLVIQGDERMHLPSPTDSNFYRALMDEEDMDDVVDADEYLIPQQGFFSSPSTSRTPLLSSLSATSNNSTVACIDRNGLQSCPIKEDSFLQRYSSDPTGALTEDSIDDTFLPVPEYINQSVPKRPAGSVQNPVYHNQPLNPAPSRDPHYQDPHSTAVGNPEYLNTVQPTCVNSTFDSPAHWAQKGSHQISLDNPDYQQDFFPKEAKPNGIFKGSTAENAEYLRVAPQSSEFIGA
Method in brief: as §1

[3] = BaF3 cells, EGFR DEL19-C797S, read-out: DEL19-C797S/BaF3 GI50
[4] = BaF3 cells, EGFR DEL19-T790-C797S, read-out: DEL19-T790-C797S/BaF3 GI50
[5] = BaF3 cells, EGFR L858R, read-out: L858R/BaF3 GI50
[6] = BaF3 cells, EGFR L858R-C797S, read-out: L858R-C797S/BaF3 GI50
[7] = BaF3 cells, EGFR L858R-T790-C797S, read-out: L858R-T790-C797S/BaF3 GI50
[8] = BaF3 cells, EGFR L858R-T790M, read-out: L858R-T790M/BaF3 GI50
[9] = EGFR DEL19-T790M, read-out: DEL19-T790M GI50

Row | SMILES | IC50 (EGFR (d746-750 C797S)) [nM] | GI50 (A-431) [nM] | IC50 (EGFR L858R) [nM] | IC50 (EGFR L858R/T790M) [nM] | GI50 [1, 3] [nM] | GI50 [1, 4] [nM] | GI50 [1, 5] [nM] | GI50 [1, 6] [nM] | GI50 [1, 7] [nM] | GI50 [1, 8] [nM] | GI50 [1, 9] [nM] | IC50 (EGFR Exon19Del) [nM] | GI50 (PC-9) [nM] | IC50 [2] [nM] | IC50 (EGFR Exon19Del/T790M) [nM] | IC50 (EGFR[T790M/C797S/L858R]) [nM] | IC50 (EGFR wild type) [nM] | IC50 (EGFR (C797S L858R)) [nM]
1 | Cn1ncc2c1OCCN1CCCC(C)(C1)n1c(nc3ccc(N4CCOCC4)cc31)NC(=O)c1cc-2c(=O)n(C)c1 (stereo not drawn) [Example A10, 1,15,21-trimethyl-5-(morpholin-4-yl)-23-oxa-2,9,11,15,20,21,26-heptaazahexacyclo[24.3.1.1^{13,17}.0^{2,10}.0^{3,8}.0^{18,22}]hentriaconta-3,5,7,9,13,17(31),18(22),19-octaene-12,16-dione] | 173 | 5140 | 2150 | 2630 | 33 | 368 | 309 | 291 | 260 | 219 | 323 | 189 | 128 | 166 | 164 | 4400 | > 5000 | 1950
2 | Cn1ncc2c1OCCN1CC(CCC1(C)C)n1c(nc3ccc(N4CCOCC4)cc31)NC(=O)c1cc-2c(=O)n(C)c1 (stereo not drawn) [Example A12, 15,21,27,27-Tetramethyl-5-(morpholin-4-yl)-23-oxa-2,9,11,15,20,21,26-heptaazahexacyclo[24.3.1.1^{13,17}.0^{2,10}.0^{3,8}.0^{18,22}]hentriaconta-3,5,7,9,13,17(31),18(22),19-octaene-12,16-dione] | 119 | 3130 | 482 | 476 | 39 | 265 | 72 | 159 | 122 | 116 | 197 | 144 | 149 | 105 | 89 | 486 | > 5000 | 389
3 | Cn1ncc2c1OCCN1CCCCC(C)(C1)n1c(nc3ccc(N4CCOCC4)cc31)NC(=O)c1cc-2c(=O)n(C)c1 (stereo not drawn) [Example A13, 1,15,21-Trimethyl-5-(morpholin-4-yl)-23-oxa-2,9,11,15,20,21,26heptaazahexacyclo[24.4.1.1^{13,17}.0^{2,10}.0^{3,8}.0^{18,22}]dotriac onta-3,5,7,9,13,17(32),18(22),19-octaene-12,16-dione] | 780 | 357 | > 5000 | > 5000 | 148 | 192 | 234 | 232 | 280 | 411 | 192 | 932 | 292 | 728 | 757 | > 5000 | > 5000 | > 5000
4 | CCn1cc2cc(c1=O)-c1cnn(C)c1OCCC[C@@H](C)Cn1c(nc3ccc(N4CCN(C)CC4)cc31)NC2=O [Example A14, (11R)-26-Ethyl-5,11-dimethyl-16-(4-methylpiperazin-1-yl)-7-oxa-4,5,13,20,22,26-hexaazapentacyclo[22.3.1.0^{2,6}.0^{13,21}.0^{14,19}]octacosa-1(28),2(6),3,14,16,18,20,24-octaene-23,27-dione] | 63 | 2240 | > 5000 | > 5000 | 57 | 356 | 305 | 188 | 459 | 866 | 462 | 144 | 152 | 59 | 132 | > 5000 | > 5000 | > 5000
5 | CN1CCN(c2ccc3nc4n(c3c2)CC2(CCCOc3c(cnn3C)-c3cc(cn(C)c3=O)C(=O)N4)CC2)CC1 [Example A18, 5′,26′-dimethyl-16′-(4-methylpiperazin-1-yl)-7′-oxa-4′,5′,13′,20′,22′,26′-hexaazaspiro[cyclopropane-1,11′-pentacyclo[22.3.1.0^{2,6}.0^{13,21}.0^{14,19}]octacosan]-1′(28′),2′(6′),3′,14′,16′,18′,20′,24′-octaene-23′,27′-dione] | 91 | 377 | 1370 | 1140 | 52.9 | 246 | 194 | 169 | 309 | 249 | 187 | 54 | 565 | 44 | 41 | 1720 | > 5000 | 929
6 | CC1CCCCOc2c(cnn2C)-c2cc(cn(C)c2=O)C(=O)Nc2nc3ccc(N4CCN(C)CC4)cc3n21 (stereo not drawn) [Example A19, 5,12,26-Trimethyl-16-(4-methylpiperazin-1-yl)-7-oxa-4,5,13,20,22,26-hexaazapentacyclo[22.3.1.0^{2,6}.0^{13,21}.0^{14,19}]octacosa-1(28),2(6),3,14,16,18,20,24-octaene-23,27-dione] | 19 | 1340 | 625 | 632 | 6.6 | 113 | 147 | 98 | 246 | 85 | 85 | 22 | 856 | 16 | 29 | 214 | > 5000 | 283
7 | CCn1ncc2c1OCCC[C@@H](C)Cn1c(nc3ccc(N4CCN(C)CC4)cc31)NC(=O)c1cc-2c(=O)n(C)c1 [Example A21, (11R)-5-ethyl-11,26-dimethyl-16-(4-methylpiperazin-1-yl)-7-oxa-4,5,13,20,22,26-hexaazapentacyclo[22.3.1.0^{2,6}.0^{13,21}.0^{14,19}]octacosa-1(28),2(6),3,14,16,18,20,24-octaene-23,27-dione] | 3.7 | 1110 | 37 | 18 | 2.1 | 22 | 19 | 26 | 7.2 | 6.7 | 24 | 4.6 | 24 | 7.1 | 7.3 | 7.2 | 446 | 15
